Source: patent US20090047246A1, “NOVEL INHIBITORS OF HEPATITIS C VIRUS REPLICATION” (InterMune, Inc., priority 2007, published 2009)
pIC50: −log10 of the molar value.

Each molecule was assayed against T1, HCV NS3 helicase (Hepatitis C virus genotype 1b, UniProt P26663) (assay: HCV Helicase Prompt FRET Assay (Example A)). Settings: 2nd test; read-out: IC50 Activity (on 2nd test).
T1 construct: full-length NS3 (1-631), purified at Array BioPharma
T1 sequence (P26663 1027-1657): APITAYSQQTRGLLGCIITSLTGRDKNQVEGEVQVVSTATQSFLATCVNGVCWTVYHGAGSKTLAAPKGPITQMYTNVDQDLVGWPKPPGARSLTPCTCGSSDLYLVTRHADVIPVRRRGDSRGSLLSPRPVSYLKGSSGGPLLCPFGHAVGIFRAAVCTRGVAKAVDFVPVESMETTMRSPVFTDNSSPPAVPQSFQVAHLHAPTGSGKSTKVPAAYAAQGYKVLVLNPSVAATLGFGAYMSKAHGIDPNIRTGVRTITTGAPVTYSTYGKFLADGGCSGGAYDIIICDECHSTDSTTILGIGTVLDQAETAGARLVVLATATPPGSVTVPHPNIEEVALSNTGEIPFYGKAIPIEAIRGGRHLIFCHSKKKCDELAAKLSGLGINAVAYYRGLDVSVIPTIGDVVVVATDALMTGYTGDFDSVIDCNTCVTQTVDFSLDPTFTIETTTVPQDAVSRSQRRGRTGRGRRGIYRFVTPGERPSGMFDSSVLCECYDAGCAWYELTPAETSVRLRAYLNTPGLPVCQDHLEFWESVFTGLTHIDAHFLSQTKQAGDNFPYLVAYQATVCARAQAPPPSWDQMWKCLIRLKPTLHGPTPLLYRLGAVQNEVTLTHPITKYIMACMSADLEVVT
Assay type: biochemical
How it was run: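 Initial unwinding rates, monitored as FAM fluorescence gain (ex 485, em 535) over ~30 min at room temperature, gave IC50 via 4- or 5-parameter logistic fits. Reactions: 50 nM quenched duplex, 250 nM capture strand, 300 μM ATP, 5–6 nM NS3 1-631 after 5 min compound preincubation, MOPS pH 7.0 buffer, 2% DMSO.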
COC(=O)C(c1ccccc1)c1cn(-c2ccc([N+](=O)[O-])cc2C)c2ccc(Br)cc12 (centres unmarked) [Example 387] showed a pIC50 of under 4.30.

Same assay, conditions: HCV NS3 helicase; tables do not say whether Example A or Example B assay; read-out: IC50 Activity
In the case of O=C(O)Cc1c(Cc2cccc(-c3cc(Cl)cc(Cl)c3)c2)oc2ccccc12 [Example 310], the pIC50 was over 5.00.
For CC(C)c1cccc(-c2cccc(Cc3oc4ccccc4c3CC(=O)O)c2)c1 [Example 311], the pIC50 was over 5.00.
Work on O=C(O)Cc1c(C(=O)c2ccc(-c3ccccc3)cc2)[nH]c2ccc(Br)cc12 [Example 312] yielded a pIC50 of 4.30 to 5.00.
Cc1cc([N+](=O)[O-])ccc1-n1cc(CP(=O)(O)O)c2cc(Br)ccc21 [Example 313] showed a pIC50 of 4.30 to 5.00.
CS(=O)(=O)c1ccc(-n2cc(CP(=O)(O)O)c3cc(Br)ccc32)cc1 [Example 314] was tested, and the pIC50 was 4.30 to 5.00.
O=P(O)(O)Cc1cn(-c2ccc(S(=O)(=O)CCO)cc2)c2ccc(Br)cc12 [Example 315] showed a pIC50 of 4.30 to 5.00.
With N#Cc1ccnc(-n2cc(CP(=O)(O)O)c3cc(Br)ccc32)c1 [Example 316] the pIC50 was 4.30 to 5.00.
Work on O=[N+]([O-])c1ccc(-n2cc(CP(=O)(O)O)c3cc(Br)ccc32)nc1 [Example 317] yielded a pIC50 of over 5.00.
Work on O=C(O)Cc1c[nH]c2ncccc12 [Example 318] yielded a pIC50 of under 4.30.
Molecule Cc1cc([N+](=O)[O-])ccc1-n1cc(CC(=O)O)c2cccnc21 [Example 319] has a pIC50 of under 4.30.
Molecule Cc1cc([N+](=O)[O-])ccc1-n1cc(I)c2cc(Br)cnc21 [Example 320] has a pIC50 of under 4.30.
Work on C#Cc1cn(-c2ccc([N+](=O)[O-])cc2C)c2ncc(Br)cc12 [Example 321] yielded a pIC50 of under 4.30.
COC(=O)/C=C/c1cnc2c(c1)c(/C=C/C(=O)OC)cn2-c1ccc([N+](=O)[O-])cc1C [Example 322] showed a pIC50 of 4.30 to 5.00.
With Cc1cc([N+](=O)[O-])ccc1-n1cc(/C=C/C(=O)O)c2cc(/C=C/C(=O)O)cnc21 [Example 323] the pIC50 was under 4.30.
For Cc1cc([N+](=O)[O-])ccc1-n1cc(CC(=O)O)c2cc(Br)cnc21 [Example 324], the pIC50 was under 4.30.
O=Cc1c[nH]c2cnc(OCc3ccccc3)cc12 [Example 326] showed a pIC50 of under 4.30.
Molecule Cc1cc([N+](=O)[O-])ccc1-n1cc(C=O)c2cc(OCc3ccccc3)ncc21 [Example 327] has a pIC50 of under 4.30.
Molecule COC(=O)/C=C/c1cn(-c2ccc([N+](=O)[O-])cc2C)c2ncc(OCc3ccccc3)cc12 [Example 328] has a pIC50 of under 4.30.
Molecule COC(=O)C=Cc1cn(-c2ccc([N+](=O)[O-])cc2C)c2cnc(OCc3ccccc3)cc12 [Example 329] has a pIC50 of under 4.30.
Cc1cc([N+](=O)[O-])ccc1-n1cc(/C=C/C(=O)O)c2cc(Br)cnc21 [Example 330] was tested, and the pIC50 was under 4.30.
For Cc1cc([N+](=O)[O-])ccc1-n1cc(C(=O)C(=O)O)c2cc(Br)cnc21 [Example 332], the pIC50 was 4.30 to 5.00.
Work on Cc1cc([N+](=O)[O-])ccc1-n1cc(C=CC(=O)O)c2cc(OCc3ccccc3)ncc21 [Example 333] yielded a pIC50 of under 4.30.
Molecule COC(=O)/C=C/c1cnc2c(c1)c(CC(=O)O)cn2-c1ccc(NCCC(=O)OC)cc1C [Example 334] has a pIC50 of 4.30 to 5.00.
In the case of O=C(O)Cc1cn(-c2ccc([N+](=O)[O-])cc2[N+](=O)[O-])c2ncc(Br)cc12 [Example 337], the pIC50 was 4.30 to 5.00.
With COC(OC)c1cc([N+](=O)[O-])ccc1-n1cc(CC(=O)O)c2cc(Br)ccc21 [Example 338] the pIC50 was under 4.30.
O=C(O)Cc1cn(-c2ccc([N+](=O)[O-])cc2C2OCCO2)c2ccc(Br)cc12 [Example 339] was tested, and the pIC50 was 4.30 to 5.00.
With O=C(O)Cc1cn(Cc2csc3ccc(Cl)cc23)c2cc(OCc3ccccc3)ccc12 [Example 340] the pIC50 was over 5.00.
With COc1ccc2c(CC(=O)O)cn(-c3ccc([N+](=O)[O-])cc3C)c2c1 [Example 341] the pIC50 was under 4.30.
Work on COc1cc2c(cc1OCc1ccccc1)c(CC(=O)O)cn2-c1ccc([N+](=O)[O-])cc1C [Example 342] yielded a pIC50 of 4.30 to 5.00.
Cc1cc([N+](=O)[O-])ccc1-n1cc(CC(=O)O)c2ccc(OCc3ccccc3)cc21 [Example 343] was tested, and the pIC50 was 4.30 to 5.00.
Cc1cc([N+](=O)[O-])ccc1-n1cc(CC(=O)O)c2cc3c(cc21)OCO3 [Example 344] gave a pIC50 of under 4.30.
Work on COc1ccc2c(CC(=O)O)cn(Cc3csc4ccc(Cl)cc34)c2c1 [Example 345] yielded a pIC50 of 4.30 to 5.00.
Molecule COc1cc2c(cc1OCc1ccccc1)c(CC(=O)O)cn2Cc1csc2ccc(Cl)cc12 [Example 346] has a pIC50 of 4.30 to 5.00.
For O=C(O)Cc1c(Cc2csc3ccc(Cl)cc23)[nH]c2cc(OCc3ccccc3)ccc12 [Example 347], the pIC50 was over 5.00.
O=C(O)Cc1c(Cc2csc3ccc(Cl)cc23)n(Cc2csc3ccc(Cl)cc23)c2cc(OCc3ccccc3)ccc12 [Example 348] showed a pIC50 of over 5.00.
Molecule CCOc1ccc2c(CC(=O)O)cn(Cc3csc4ccc(Cl)cc34)c2c1 [Example 349] has a pIC50 of 4.30 to 5.00.
O=C(OCc1ccccc1)C(Cc1ccccc1)c1cn(Cc2csc3ccc(Cl)cc23)c2cc(OCc3ccccc3)ccc12 (centres unmarked) [Example 350] was tested, and the pIC50 was under 4.30.
O=C(O)C(Cc1ccccc1)c1cn(Cc2csc3ccc(Cl)cc23)c2cc(OCc3ccccc3)ccc12 (centres unmarked) [Example 351] showed a pIC50 of over 5.00.
For C=COc1ccc2c(CC(=O)O)cn(Cc3csc4ccc(Cl)cc34)c2c1 [Example 352], the pIC50 was over 5.00.
Work on O=C(O)Cc1cn(Cc2csc3ccc(Cl)cc23)c2cc(-c3ccccc3)ccc12 [Example 353] yielded a pIC50 of over 5.00.
In the case of O=C(O)Cc1cn(CC(=O)O)c2cc(-c3ccccc3)ccc12 [Example 354], the pIC50 was under 4.30.
With O=C(O)Cc1c[nH]c2c(Oc3ccc([N+](=O)[O-])cc3)cccc12 [Example 355] the pIC50 was under 4.30.
For O=C(O)Cc1cn(Cc2csc3ccc(Cl)cc23)c2c(Oc3ccc([N+](=O)[O-])cc3)cccc12 [Example 356], the pIC50 was over 5.00.
For O=C(O)Cc1cn(Cc2csc3ccc(Cl)cc23)c2cc(Oc3ccc([N+](=O)[O-])cc3)ccc12 [Example 357], the pIC50 was over 5.00.
O=C(O)Cc1cn(Cc2csc3ccc(Cl)cc23)c2cc(OCc3ccccc3)c(OCc3ccccc3)cc12 [Example 358] showed a pIC50 of over 5.00.
O=C(O)Cc1cn(Cc2csc3ccc(Cl)cc23)c2cc(Br)ccc12 [Example 359] gave a pIC50 of 4.30 to 5.00.
Molecule O=C(O)C(Cc1csc2ccc(Cl)cc12)c1cn(Cc2csc3ccc(Cl)cc23)c2cc(Br)ccc12 (centres unmarked) [Example 360] has a pIC50 of over 5.00.
O=C(O)C(Cc1csc2ccc(Cl)cc12)c1cn(Cc2csc3ccc(Cl)cc23)c2cc(-c3ccco3)ccc12 (centres unmarked) [Example 361] gave a pIC50 of over 5.00.
Molecule Nc1cccc(-c2ccc3c(CC(=O)O)cn(Cc4csc5ccc(Cl)cc45)c3c2)c1 [Example 363] has a pIC50 of over 5.00.
With C#Cc1ccc2c(CC(=O)O)cn(Cc3csc4ccc(Cl)cc34)c2c1 [Example 364] the pIC50 was over 5.00.
Molecule Nc1cc(-c2ccc3c(CC(=O)O)cn(Cc4csc5ccc(Cl)cc45)c3c2)cc([N+](=O)[O-])c1 [Example 365] has a pIC50 of over 5.00.
Molecule O=C(O)Cc1c(Cc2csc3ccc(Cl)cc23)n(Cc2ccccc2)c2cc(OCc3ccccc3)ccc12 [Example 366] has a pIC50 of over 5.00.
Molecule C=CCn1c(Cc2csc3ccc(Cl)cc23)c(CC(=O)O)c2ccc(OCc3ccccc3)cc21 [Example 367] has a pIC50 of over 5.00.
Cn1c(Cc2csc3ccc(Cl)cc23)c(CC(=O)O)c2ccc(OCc3ccccc3)cc21 [Example 368] gave a pIC50 of over 5.00.
O=C(O)Cc1c(Cc2csc3ccc(Cl)cc23)n(CC2CC2)c2cc(OCc3ccccc3)ccc12 [Example 369] was tested, and the pIC50 was over 5.00.
CCn1c(Cc2csc3ccc(Cl)cc23)c(CC(=O)O)c2ccc(OCc3ccccc3)cc21 [Example 370] showed a pIC50 of over 5.00.
Cc1cc([N+](=O)[O-])ccc1-n1c(Cc2csc3ccc(Cl)cc23)c(CC(=O)O)c2ccc(OCc3ccccc3)cc21 [Example 371] gave a pIC50 of over 5.00.
Molecule O=C(O)Cc1c(Cc2csc3ccc(Cl)cc23)n(-c2ccc([N+](=O)[O-])cc2)c2cc(OCc3ccccc3)ccc12 [Example 372] has a pIC50 of over 5.00.
Nc1cc(N)cc(-c2ccc3c(CC(=O)O)cn(Cc4csc5ccc(Cl)cc45)c3c2)c1 [Example 373] was tested, and the pIC50 was over 5.00.
O=C(O)Cc1c(Cc2csc3ccc(Cl)cc23)[nH]c2ccc(Br)cc12 [Example 374] was tested, and the pIC50 was 4.30 to 5.00.
With Cc1cc([N+](=O)[O-])ccc1-n1ccc2cc(Br)ccc21 [Example 376] the pIC50 was under 4.30.
Cc1cc([N+](=O)[O-])ccc1-n1cc(CC(=O)O)c2ccccc21 [Example 377] was tested, and the pIC50 was under 4.30.
Molecule COC(=O)Cc1cn(-c2ccc([N+](=O)[O-])cc2C)c2ccc(Br)cc12 [Example 378] has a pIC50 of under 4.30.
CCOC(=O)C(=O)c1cn(-c2ccc([N+](=O)[O-])cc2C)c2ccc(Br)cc12 [Example 379] showed a pIC50 of 4.30 to 5.00.
Molecule Cc1ccc2c(c1)c(CC(=O)O)cn2-c1ccc([N+](=O)[O-])cc1C [Example 380] has a pIC50 of under 4.30.
In the case of Cc1cc([N+](=O)[O-])ccc1-n1cc(C(=O)C(=O)O)c2cc(Br)ccc21 [Example 381], the pIC50 was 4.30 to 5.00.
Cc1cc([N+](=O)[O-])ccc1-n1cc(C(=O)O)c2cc(Br)ccc21 [Example 382] gave a pIC50 of under 4.30.
Work on CCOC(=O)C(F)(F)c1cn(-c2ccc([N+](=O)[O-])cc2C)c2ccc(Br)cc12 [Example 383] yielded a pIC50 of 4.30 to 5.00.
Work on Cc1cc([N+](=O)[O-])ccc1-n1cc(C(=O)C(N)=O)c2cc(Br)ccc21 [Example 384] yielded a pIC50 of under 4.30.
Molecule CCN(CC)C(=O)C(=O)c1cn(-c2ccc([N+](=O)[O-])cc2C)c2ccc(Br)cc12 [Example 385] has a pIC50 of under 4.30.
For Cc1cc([N+](=O)[O-])ccc1-n1cc(CCC(=O)O)c2cc(Br)ccc21 [Example 386], the pIC50 was 4.30 to 5.00.
For COC(=O)C(c1ccccc1)c1cn(-c2ccc([N+](=O)[O-])cc2C)c2ccc(Br)cc12 (centres unmarked) [Example 387], the pIC50 was 4.30 to 5.00.
Cc1cc([N+](=O)[O-])ccc1-n1cc(C(C(=O)O)c2ccccc2)c2cc(Br)ccc21 (centres unmarked) [Example 388] showed a pIC50 of over 5.00.
With COC(=O)C(C)c1cn(-c2ccc([N+](=O)[O-])cc2C)c2ccc(Br)cc12 (centres unmarked) [Example 390] the pIC50 was under 4.30.
Cc1cc([N+](=O)[O-])ccc1-n1cc(C(C)C(=O)O)c2cc(Br)ccc21 (centres unmarked) [Example 391] showed a pIC50 of 4.30 to 5.00.

Same assay, conditions: IC50 Activity, HCV NS3 helicase; tables do not say whether Example A or Example B assay
CCOC(=O)C(O)(c1cn(-c2ccc([N+](=O)[O-])cc2C)c2ccc(Br)cc12)C(F)(F)F (centres unmarked) [Example 389] was tested, and the pIC50 was under 4.30.
